Experiments:
[1] = system: Bovine viral diarrhea (BVD) virus; experiment: Anti-BVDV CPE inhibition assay in MDBK cells; conditions: for EC50: Bovine viral diarrhea virus isolates and strains, MDBK, in Bos taurus, 96 h; for SI (selectivity index, ratio of CC50 and EC50): CC50/EC50, MDBK cells, BVD virus
[2] = Cytotoxicity in MDBK cells (no BVD virus added); conditions: bovine, MDBK cells (Madin-Darby bovine kidney), no virus added

SMILES | EC50 [1] | SI (selectivity index, ratio of CC50 and EC50) [1] | CC50 at 4 days [2]
Cc1ccc2sc(Cn3ccc4nc(-c5cnn(C)c5C)nc-4c3)nc2c1 [CPD-2, 2-((2-(1,5-dimethyl-1H-pyrazol-4-yl)-5H-imidazo[4,5-c]pyridin-5-yl)methyl)-5-methylbenzo[d]thiazole] | 79 ± 4 nM | >633 | > 50000 nM
Cc1c(-c2nc3ccn(Cc4nc5ccccc5s4)cc-3n2)cnn1C [CPD-3, 2-((2-(1,5-dimethyl-1H-pyrazol-4-yl)-5H-imidazo[4,5-c]pyridin-5-yl)methyl)benzo[d]thiazole] | 78 ± 5 nM | >641 | > 50000 nM
Cc1c(-c2nc3ccn(Cc4nc5cc(Cl)ccc5s4)cc-3n2)cnn1C [CPD-4, 5-chloro-2-((2-(1,5-dimethyl-1H-pyrazol-4-yl)-5H-imidazo[4,5-c]pyridin-5-yl)methyl)benzo[d]thiazole] | 84 ± 3 nM | >595 | > 50000 nM
Cc1c(-c2nc3ccn(Cc4nc5ccc(Cl)cc5s4)cc-3n2)cnn1C [CPD-5, 6-chloro-2-((2-(1,5-dimethyl-1H-pyrazol-4-yl)-5H-imidazo[4,5-c]pyridin-5-yl)methyl)benzo[d]thiazole] | 27 ± 27 nM | >1852 | > 50000 nM
Cc1c(-c2nc3ccn(Cc4nc5ccc6ccccc6c5s4)cc-3n2)cnn1C [CPD-6, 2-((2-(1,5-dimethyl-1H-pyrazol-4-yl)-5H-imidazo[4,5-c]pyridin-5-yl)methyl)naphtho[2,1-d]thiazole] | 14 ± 1 nM | >3571 | > 50000 nM
Cc1ccc2oc(Cn3ccc4nc(-c5cnn(C)c5C)nc-4c3)nc2c1 [CPD-8, 2-((2-(1,5-dimethyl-1H-pyrazol-4-yl)-5H-imidazo[4,5-c]pyridin-5-yl)methyl)-5-methylbenzo[d]oxazole] | 79 ± 4 nM | >633 | > 50000 nM
Cc1c(-c2nc3ccn(Cn4nnc5ccccc54)cc-3n2)cnn1C [CPD-9, 1-((2-(1,5-dimethyl-1H-pyrazol-4-yl)-5H-imidazo[4,5-c]pyridin-5-yl)methyl)-1H-benzo[d][1,2,3]triazole] | 346 ± 86 nM | 64 | 22000 nM
Cc1ccc2sc(Cn3ccc4nc(-c5cn(C)nc5C)nc-4c3)nc2c1 [CPD-11, 2-((2-(1,3-dimethyl-1H-pyrazol-4-yl)-5H-imidazo[4,5-c]pyridin-5-yl)methyl)-5-methylbenzo[d]thiazole] | 300 ± 100 nM | >167 | > 50000 nM
Cc1ccc2oc(Cn3ccc4nc(-c5cn(C)nc5C)nc-4c3)nc2c1 [CPD-12, 2-((2-(1,3-dimethyl-1H-pyrazol-4-yl)-5H-imidazo[4,5-c]pyridin-5-yl)methyl)-5-methylbenzo[d]oxazole] | 256 ± 111 nM | >195 | > 50000 nM
Cc1nn(C)c(C)c1-c1nc2ccn(Cc3cc(-c4cc(F)ccc4F)no3)cc-2n1 [CPD-13, 3-(2,5-difluorophenyl)-5-((2-(1,3,5-trimethyl-1H-pyrazol-4-yl)-5H-imidazo[4,5-c]pyridin-5-yl)methyl)isoxazole] | 95 ± 22 nM | >526 | > 50000 nM
COc1ncccc1-c1nc2ccn(Cc3nc4ccc(C)cc4s3)cc-2n1 [CPD-14, 2-((2-(2-methoxypyridin-3-yl)-5H-imidazo[4,5-c]pyridin-5-yl)methyl)-6-methylbenzo[d]thiazole] | 20 ± 4 nM | >2500 | > 50000 nM
COc1ncccc1-c1nc2ccn(Cc3nc4cc(C)ccc4s3)cc-2n1 [CPD-15, 2-((2-(2-methoxypyridin-3-yl)-5H-imidazo[4,5-c]pyridin-5-yl)methyl)-5-methylbenzo[d]thiazole] | 86 ± 4 nM | >581 | > 50000 nM
COc1ncccc1-c1nc2ccn(Cc3nc4cc(C)ccc4o3)cc-2n1 [CPD-16, 2-((2-(2-methoxypyridin-3-yl)-5H-imidazo[4,5-c]pyridin-5-yl)methyl)-5-methylbenzo[d]oxazole] | 117 nM | >427 | > 50000 nM
COc1ncccc1-c1nc2ccn(Cc3cc(-c4cc(F)ccc4F)no3)cc-2n1 [CPD-17, 3-(2,5-difluorophenyl)-5-((2-(2-methoxypyridin-3-yl)-5H-imidazo[4,5-c]pyridin-5-yl)methyl)isoxazole] | 72 ± 2 nM | 1389 | 100000 nM
COc1ccccc1-c1nc2ccn(Cc3nc4ccc(C)cc4s3)cc-2n1 [CPD-18, 2-((2-(2-methoxyphenyl)-5H-imidazo[4,5-c]pyridin-5-yl)methyl)-6-methylbenzo[d]thiazole] | 2 ± 1 nM | 10000 | 20000 nM
COc1ccccc1-c1nc2ccn(Cc3cc(-c4cc(F)ccc4F)no3)cc-2n1 [CPD-19, 3-(2,5-difluorophenyl)-5-((2-(2-methoxyphenyl)-5H-imidazo[4,5-c]pyridin-5-yl)methyl)isoxazole] | 4 ± 1 nM | 4750 | 19000 nM

SMILES | EC50 [1] | SI (selectivity index, ratio of CC50 and EC50) [1] | CC50 at 4 days [2]
COc1ccccc1-c1nc2ccn(Cn3nnc4ccccc43)cc-2n1 [CPD-20, 1-((2-(2-methoxyphenyl)-5H-imidazo[4,5-c]pyridin-5-yl)methyl)-1H-benzo[d][1,2,3]triazole] | 87 ± 3 nM | >575 | > 50000 nM
Cc1ccc2nc(Cn3ccc4nc(-c5ccccc5OC(F)F)nc-4c3)sc2c1 [CPD-21, 2-((2-(2-(difluoromethoxy)phenyl)-5H-imidazo[4,5-c]pyridin-5-yl)methyl)-6-methylbenzo[d]thiazole] | 409 nM | 76 | 31000 nM
Cc1ccc2nc(Cn3ccc4nc(-c5ccccc5F)nc-4c3)sc2c1 [CPD-22, 2-((2-(2-fluorophenyl)-5H-imidazo[4,5-c]pyridin-5-yl)methyl)-6-methylbenzo[d]thiazole] | 19 ± 5 nM | >5263 | > 100000 nM
Cc1ccc2sc(Cn3ccc4nc(-c5ccccc5F)nc-4c3)nc2c1 [CPD-23, 2-((2-(2-fluorophenyl)-5H-imidazo[4,5-c]pyridin-5-yl)methyl)-5-methylbenzo[d]thiazole] | 84 ± 29 nM | >595 | > 50000 nM
Fc1ccccc1-c1nc2ccn(Cc3nc4ccccc4s3)cc-2n1 [CPD-24, 2-((2-(2-fluorophenyl)-5H-imidazo[4,5-c]pyridin-5-yl)methyl)benzo[d]thiazole] | 299 ± 91 nM | >167 | > 50000 nM
Fc1ccccc1-c1nc2ccn(Cc3nc4ccc(Cl)cc4s3)cc-2n1 [CPD-25, 6-chloro-2-((2-(2-fluorophenyl)-5H-imidazo[4,5-c]pyridin-5-yl)methyl)benzo[d]thiazole] | 78 ± 4 nM | >641 | > 50000 nM
Fc1ccccc1-c1nc2ccn(Cc3nc4cc(Cl)ccc4s3)cc-2n1 [CPD-26, 5-chloro-2-((2-(2-fluorophenyl)-5H-imidazo[4,5-c]pyridin-5-yl)methyl)benzo[d]thiazole] | 96 ± 6 nM | >521 | > 50000 nM
OCc1ccc2nc(Cn3ccc4nc(-c5ccccc5F)nc-4c3)sc2c1 [CPD-27, (2-((2-(2-fluorophenyl)-5H-imidazo[4,5-c]pyridin-5-yl)methyl)benzo[d]thiazol-6-yl)methanol] | 366 nM | >137 | > 50000 nM
Fc1ccccc1-c1nc2ccn(Cc3ncc(-c4ccccc4)s3)cc-2n1 [CPD-28, 2-((2-(2-fluorophenyl)-5H-imidazo[4,5-c]pyridin-5-yl)methyl)-5-phenylthiazole] | 82 nM | >610 | > 50000 nM
Fc1ccccc1-c1nc2ccn(Cc3ccc(Cl)s3)cc-2n1 [CPD-30, 5-((5-chlorothiophen-2-yl)methyl)-2-(2-fluorophenyl)-5H-imidazo[4,5-c]pyridine] | 129 ± 61 nM | >388 | > 50000 nM
Cc1ccc2oc(Cn3ccc4nc(-c5ccccc5F)nc-4c3)nc2c1 [CPD-31, 2-((2-(2-fluorophenyl)-5H-imidazo[4,5-c]pyridin-5-yl)methyl)-5-methylbenzo[d]oxazole] | 306 ± 98 nM | >163 | > 50000 nM
Cc1ccc2nc(Cn3ccc4nc(-c5ccccc5F)nc-4c3)oc2c1 [CPD-32, 2-((2-(2-fluorophenyl)-5H-imidazo[4,5-c]pyridin-5-yl)methyl)-6-methylbenzo[d]oxazole] | 377 ± 16 nM | >133 | > 50000 nM
COc1ccc2oc(Cn3ccc4nc(-c5ccccc5F)nc-4c3)nc2c1 [CPD-33, 2-((2-(2-fluorophenyl)-5H-imidazo[4,5-c]pyridin-5-yl)methyl)-5-methoxybenzo[d]oxazole] | 447 nM | >112 | > 50000 nM
Fc1ccc(-c2cc(Cn3ccc4nc(-c5ccccc5F)nc-4c3)on2)c(F)c1 [CPD-34, 3-(2,4-difluorophenyl)-5-((2-(2-fluorophenyl)-5H-imidazo[4,5-c]pyridin-5-yl)methyl)isoxazole] | 92 ± 49 nM | >543 | > 50000 nM
Fc1ccc(F)c(-c2cc(Cn3ccc4nc(-c5ccccc5F)nc-4c3)on2)c1 [CPD-35, 3-(2,5-difluorophenyl)-5-((2-(2-fluorophenyl)-5H-imidazo[4,5-c]pyridin-5-yl)methyl)isoxazole] | 75 ± 24 nM | >667 | > 50000 nM

Source: patent publication US12577242B2, “Pyrrolopyridine and imidazopyridine antiviral compounds” (KATHOLIEKE UNIVERSITEIT LEUVEN, priority 2020, dated 2026)
